In PMC7192969 (Journal of Pharmaceutical Analysis, 2019):

Assays:
[1] = Pharmacokinetics of aconitine in plasma after oral administration; assay type: in vivo; conditions: male, Sprague-Dawley, rat, 1 mg/kg; for half-life: t1/2z
[2] = system: SD rats; assay: Freund's adjuvant induced hind paw edema, anti-inflammatory effect; assay type: in vivo, rat
[3] = Group A: aconitine at 1 mg/kg oral, alone
[4] = Group B: aconitine at 1 mg/kg + liquiritin at 10 mg/kg oral
[5] = Group D: aconitine at 1 mg/kg + glycyrrhizic acid at 10 mg/kg oral
[6] = Group E: aconitine at 1 mg/kg + glycyrrhetinic acid at 10 mg/kg oral
[7] = 0 h, 10 mg/kg oral in combination with aconitine 1 mg/kg
[8] = 1 h, 10 mg/kg oral in combination with aconitine 1 mg/kg
[9] = 2 h, 10 mg/kg oral in combination with aconitine 1 mg/kg
[10] = 4 h, 10 mg/kg oral in combination with aconitine 1 mg/kg
[11] = 6 h, 10 mg/kg oral in combination with aconitine 1 mg/kg

CCN1C[C@]2(COC)[C@H](O)C[C@H](OC)[C@@]34[C@@H]5C[C@@]6(O)[C@H](OC(=O)c7ccccc7)[C@@H]5[C@@](OC(C)=O)([C@@H]([C@H](OC)[C@H]23)[C@@H]14)[C@@H](O)[C@@H]6OC [Aconitine, aconitine]
AUC(0-t) [1]: 33.7 ± 7.47 ng·h/mL
AUC(0-t) [1, 3]: 25.8 ± 4.36 ng·h/mL
AUC(0-t) [1, 4]: 30 ± 6.63 ng·h/mL
AUC(0-t) [1, 5]: 29.1 ± 4.44 ng·h/mL
AUC(0-t) [1, 6]: 19.9 ± 3.61 ng·h/mL
AUC(0-inf) [1]: 34.5 ± 7.07 ng·h/mL
AUC(0-inf) [1, 3]: 29.1 ± 6.15 ng·h/mL
AUC(0-inf) [1, 4]: 31.9 ± 5.6 ng·h/mL
AUC(0-inf) [1, 5]: 33.6 ± 6.93 ng·h/mL
AUC(0-inf) [1, 6]: 20.7 ± 3.55 ng·h/mL
Cmax [1]: 9.19 ± 1.38 ng/mL
Cmax [1, 3]: 4.8 ± 0.966 ng/mL
Cmax [1, 4]: 5.77 ± 0.831 ng/mL
Cmax [1, 5]: 5.73 ± 0.7 ng/mL
Cmax [1, 6]: 5.88 ± 0.73 ng/mL
Tmax [1]: 0.667 ± 0.258 h
Tmax [1, 3]: 1.08 ± 0.376 h
Tmax [1, 4]: 1.67 ± 0.408 h
Tmax [1, 5]: 1.42 ± 0.585 h
Tmax [1, 6]: 0.833 ± 0.258 h
half-life [1]: 131 ± 14.9 min
half-life [1, 3]: 232 ± 61.2 min
half-life [1, 4]: 196 ± 88.8 min
half-life [1, 5]: 209 ± 63.6 min
half-life [1, 6]: 114 ± 25.4 min
hind paw volume ([2]; 0 h, 1 mg/kg oral, alone): 1.70 ± 0.06 mL
hind paw volume ([2]; 1 h, 1 mg/kg oral, alone): 1.87 ± 0.10∗ mL
hind paw volume ([2]; 2 h, 1 mg/kg oral, alone): 1.99 ± 0.15 mL
hind paw volume ([2]; 4 h, 1 mg/kg oral, alone): 2.02 ± 0.12∗ mL
hind paw volume ([2]; 6 h, 1 mg/kg oral, alone): 2.19 ± 0.05∗ mL

CC1(C)[C@@H](O)CC[C@]2(C)[C@H]3C(=O)C=C4[C@@H]5C[C@@](C)(C(=O)O)CC[C@]5(C)CC[C@@]4(C)[C@]3(C)CC[C@@H]12 [Glycyrrhetinic acid, glycyrrhetinic acid]
hind paw volume [2, 7]: 1.71 ± 0.05 mL
hind paw volume [2, 8]: 1.80 ± 0.02∗# mL
hind paw volume [2, 9]: 1.79 ± 0.03∗# mL
hind paw volume [2, 10]: 1.91 ± 0.09∗ mL
hind paw volume [2, 11]: 2.10 ± 0.06∗# mL

CC1(C)[C@@H](O[C@H]2O[C@H](C(=O)O)[C@@H](O)[C@H](O)[C@H]2O[C@@H]2O[C@H](C(=O)O)[C@@H](O)[C@H](O)[C@H]2O)CC[C@]2(C)[C@H]3C(=O)C=C4[C@@H]5C[C@@](C)(C(=O)O)CC[C@]5(C)CC[C@@]4(C)[C@]3(C)CC[C@@H]12 [Glycyrrhizic acid, glycyrrhizic acid]
hind paw volume [2, 7]: 1.72 ± 0.03 mL
hind paw volume [2, 8]: 1.92 ± 0.05∗ mL
hind paw volume [2, 9]: 1.96 ± 0.09∗ mL
hind paw volume [2, 10]: 1.99 ± 0.11∗ mL
hind paw volume [2, 11]: 2.14 ± 0.08∗ mL

COc1ccc2c(c1)c(CC(=O)O)c(C)n2C(=O)c1ccc(Cl)cc1 [Indomethacin, reference compound]
hind paw volume ([2]; 0 h, 1 mg/kg oral, alone): 1.67 ± 0.09 mL
hind paw volume ([2]; 1 h, 1 mg/kg oral, alone): 2.00 ± 0.11 mL
hind paw volume ([2]; 2 h, 1 mg/kg oral, alone): 2.04 ± 0.15 mL
hind paw volume ([2]; 4 h, 1 mg/kg oral, alone): 2.15 ± 0.10∗ mL
hind paw volume ([2]; 6 h, 1 mg/kg oral, alone): 2.19 ± 0.18∗ mL

O=C1C[C@@H](c2ccc(O[C@@H]3O[C@H](CO)[C@@H](O)[C@H](O)[C@H]3O)cc2)Oc2cc(O)ccc21 [Liquiritin, liquiritin]
hind paw volume [2, 7]: 1.70 ± 0.05 mL
hind paw volume [2, 8]: 1.78 ± 0.12∗ mL
hind paw volume [2, 9]: 1.81 ± 0.10∗# mL
hind paw volume [2, 10]: 1.83 ± 0.09∗# mL
hind paw volume [2, 11]: 1.96 ± 0.14∗# mL
